Results as given in publication PMC12549899 (Nature Communications, 2025).
pIC50: −log10 of the molar value. Several values for one entry are separate records, joined by “and”; a condition that tells them apart may be missing. Identical values can stand only once.

Biological target: T1, DrOTOP1 G130W (Danio rerio, UniProt Q7ZWK8, G130W)
T1 construct: A previously generated codon-optimized full-length DrOTOP1[8]; (UniProt: Q7ZWK8) construct; expressed in transfected cells; host or cells: HEK-293 (CRL-1573, ATCC)
T1 sequence (Q7ZWK8 1-586 G130W): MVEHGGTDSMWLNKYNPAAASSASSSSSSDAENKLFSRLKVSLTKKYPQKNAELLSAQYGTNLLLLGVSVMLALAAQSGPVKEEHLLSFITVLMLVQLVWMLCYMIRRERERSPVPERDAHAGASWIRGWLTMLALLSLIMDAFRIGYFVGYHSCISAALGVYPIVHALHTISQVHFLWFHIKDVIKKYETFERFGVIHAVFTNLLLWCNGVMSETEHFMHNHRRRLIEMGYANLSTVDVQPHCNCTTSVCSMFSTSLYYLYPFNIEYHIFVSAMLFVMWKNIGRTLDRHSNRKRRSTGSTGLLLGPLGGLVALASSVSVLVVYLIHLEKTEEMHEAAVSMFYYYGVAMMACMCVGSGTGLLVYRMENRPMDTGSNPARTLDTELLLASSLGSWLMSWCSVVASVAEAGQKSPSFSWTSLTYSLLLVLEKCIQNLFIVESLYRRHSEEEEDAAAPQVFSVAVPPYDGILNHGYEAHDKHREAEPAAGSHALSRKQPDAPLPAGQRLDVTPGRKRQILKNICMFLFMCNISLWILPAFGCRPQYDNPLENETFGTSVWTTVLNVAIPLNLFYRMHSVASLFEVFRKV
Assay: Whole-cell patch-clamp, inhibition of acid-evoked currents, DrOTOP1 G130W (outer site)
Format: cell-based, zebrafish (Danio rerio)
Description: To functionally test the significance of the two binding sites identified by cryo-EM, we generated point mutations of DrOTOP1 using the binding poses and conformational changes observed in DrOTOP1_C2.2 to guide our mutations. As per the binding pose that best fits our cryo-EM density, C2.2 forms the following interactions in the outer site: hydrophobic packing against many non-polar residues W126, G130, M133, L134, F271, F570, and M573, and π-stacking with W532 (Fig. 5A). In addition, C2.2 could potentially form H-bonds with E267, if the sidechain is protonated or a water bridge is present, and with H574 if it moves closer (Fig. 5A). Likewise, C2.36 presents a heterocyclic nitrogen that can potentially form a H-bond with E267, similarly, provided a protonation or water bridge is present (Fig. 5B). In addition, C2.36 forms a T-shaped π-stacking interaction with H574, whose sidechain has rotated 90 degrees (compared to DrOTOP1_apo), presumably to accommodate the interaction (Fig. 5B). Considering other inhibitors discovered from the second round of screening, many contain functional groups like the carbonyl groups of Group 1 molecules and the heterocyclic nitrogen atoms of Group 2 molecules (Supplementary Fig. 3E), that can potentially form similar H-bonds with E267 as C2.2 and C2.36, assuming the binding modes are similar. In the central site, C2.2 binds with the following interactions: hydrophobic packing with residues V201, F271, A274, V278, and A388, π-stacking with F277, and H-bonding with E384 (Fig. 5C).
Each non-aromatic residue was mutated to tryptophan, which was expected to cause steric occlusion. […] This seemed appropriate given the small number of H-bonds in these pockets, the ambiguity of how the inhibitors fit the density, and the prevalence of hydrophobic packing interactions (Fig. 5A–C).
HEK-293 cells (CRL-1573, ATCC) were cultured in DMEM (Thermofisher 11995073) containing 10% fetal bovine serum (Life Technology 16000044) and Penicillin-Streptomycin (100 I.U./mL) and (100 µg/mL), respectively. Cells were transfected with WT DrOTOP1 or mutant DrOTOP1 channels in 35 mm petri dishes, with ~ 500 ng DNA and 2 μL TransIT-LT1 transfection reagent (Mirus Bio Corporation, Cat # MIR2300) following the manufacturer’s protocol. All constructs were subcloned into a pcDNA3.1 vector that adds an N-terminal fusion tag consisting of an octahistidine tag followed by eGFP, a Gly-Thr-Gly-Thr linker and a 3C protease cleavage site ([…]) followed by WT DrOTOP1, WT mOTOP1, WT hOTOP1, or mutated DrOTOP1. Point mutations were generated via In-Fusion Cloning (Takara) using single-stranded DNA primers generated through IDT and sequence confirmed by Sanger sequencing (GeneWiz).
Whole-cell patch-clamp recording was performed as previously described[6],[22],[25]. Recordings were made with an Axopatch 200B amplifier, digitized with a Digidata 1322a 16-bit data acquisition system, acquired with pClamp 8.2 and analyzed with Clampfit 10 (Molecular Devices). Recordings were sampled at 5 kHz and filtered at 1 kHz. Patch Pipettes with resistance of […] were fabricated from borosilicate glass, and only recordings with a giga-Ohm seal were used in analysis. Membrane potential was held at −80 mV for the duration of recordings. At the beginning of recordings and between, cells were washed with Tyrode’s solution (see below). Once a giga-Ohm seal was reached, cells were lifted and placed in front of microcapillary tubes controlled by a Fast-Step perfusion system (Warner Instruments) so that extracellular solutions could be rapidly exchanged during each experiment.
Standard Tyrode’s solution consisted of 145 mM NaCl, 5 mM KCl, MgCl2, 2 mM CaCl2, 20 mM D-Glucose, and 10 mM HEPES (for pH 7.4). All other extracellular patch-clamp solutions contained 160 mM NMDG-Cl, 2 mM CaCl2, and the following buffers: 10 mM HEPES (for pH 7.4), 10 mM MES (for pH 6.5-5.5), 10 mM CHES for pH 10, and 10 mM HomoPIPES for (pH 5.0). pH adjusted with HCl. […]

| Structure (SMILES) | inhibition at 30 µM (30 µM, DrOTOP1 G130W, single cells) [%] | inhibition at 100 µM (DrOTOP1 G130W, single cells) [%] | Hill coefficient (DrOTOP1 G130W) | pIC50 (DrOTOP1 G130W, pH 5.5) | Mean, Fig 5N (G130W + C2.2, n=5) | Disruption of inhibitory activity by site-directed mutagenesis of outer site residues (outer site mutants compared with WT) [fold] |
| --- | --- | --- | --- | --- | --- | --- |
| C=C(C)COc1ccccc1NC(=O)c1nc[nH]c1C [C2.2] | 15.3 | 42.4 | 1.123 | 3.88 and 3.86 | 15.24 | ≤ 20 |
| O=C(/C(=N\O)c1ccccc1)c1ccccc1 [C11, benzil monoxime] |  | 62.7 |  |  |  |  |
